Measurements taken from PMC7717570, “Deciphering the enzymatic target of a new family of antischistosomal agents bearing a quinazoline scaffold using complementary computational tools” (Journal of Enzyme Inhibition and Medicinal Chemistry, 2020).
Where “and” joins values, the source holds several entries; their conditions need not be identical. Identical values can stand only once.

Legend:
[1] = Microsomal stability, mouse liver microsomes (S9), Phase-I (CYP450-NADPH); format: in vitro ADME; conditions: CYP450-NADPH, 5 µM
Protocol: (§1) Mouse or human liver microsomes (S9), reduced nicotinamide adenine dinucleotide phosphate (NADPH) generating system solutions and uridine glucuronosyltransferase (UGT) reaction mix (BD Biosciences) were kept at −80 °C. The test compounds and reference compound diclofenac were formulated in DMSO at […]. The assay was carried out based on the BD Biosciences Guidelines for Use (TF000017 Rev1.0) with minor adaptations. The metabolic stability of the compounds was studied through the CYP450 superfamily (Phase-I metabolism) by fortification with NADPH and through UGT enzymes (Phase-II metabolism) by fortification with uridine diphosphate glucuronic acid (UDPGA). For CYP450 and other NADPH dependent enzymes, the compounds were incubated at 5 µM together with 0.5 mg/mL S9 in potassium phosphate buffer in a reaction started by the addition of 1 mM NADP. At defined time points, 20 µL was withdrawn from the reaction mixture and 80 µL cold acetonitrile (ACN) was added to inactivate the enzymes and precipitate the protein. The mixture was vortexed for 30 s and centrifuged at 4 °C for 5 min to collect the supernatant. For UGT enzymes, the compounds were incubated at 5 µM together with 0.5 mg/mL S9 in a reaction started by the addition of 2 mM UDPGA cofactor. The loss of parent compound was determined using liquid chromatography (UPLC) (Waters Aquity^TM) coupled with tandem quadrupole mass spectrometry (MS^2) (Waters Xevo^TM), equipped with an electrospray ionisation (ESI) interface and operated in multiple reaction monitoring (MRM) mode.

[2] = Microsomal stability, mouse liver microsomes (S9), Phase-II (UGT enzymes); format: in vitro ADME; conditions: UGT enzymes, 5 µM
Protocol: as §1

[3] = Microsomal stability, human liver microsomes (S9), Phase-I (CYP450-NADPH); format: in vitro ADME; conditions: CYP450-NADPH, 5 µM
Protocol: as §1

[4] = Microsomal stability, human liver microsomes (S9), Phase-II (UGT enzymes); format: in vitro ADME; conditions: UGT enzymes, 5 µM
Protocol: as §1

[5] = tested on: Schistosoma mansoni mature worms; test: In vitro S. mansoni worm killing; conditions: Schistosoma mansoni, 120 h, day 5, initial test (Table 2), read-out: Worm killing (% of total)
Protocol: The percentage reduction of worm or egg burden in each treated group was calculated. […] Results are expressed as mean ± SEM. A two-tailed, unpaired Student’s t-test was used to detect the significance of difference between the means of different groups. […] Stock solutions of 5 mM PZQ and the quinazoline derivatives 2–13 were prepared in DMSO. Concentrations of 100 µM, 50 µM, 25 µM, 10 µM and 5 µM were freshly prepared on the day of experiment in RPMI-1640 medium. All compounds were initially tested at 100 and 50 µM; those showing worm killing were further tested at 25, 10 and 5 µM. Worms were obtained from SBSC of TBRI. Six to eight worms were placed in 12-well tissue culture plates and fresh RPMI-1640 medium (supplemented with glutamine, 20% newborn calf serum and streptomycin, penicillin, and gentamicin), containing the indicated concentration of the test compound was added[20]^,[21]. Worms were incubated overnight in a CO2 incubator at 37 °C. On the 2nd day, worms were examined by microscopy, washed three times with normal saline, fresh medium was added and the incubation was continued. On the 3rd day, worm motility was observed and on the 4th day, medium was changed again. On day 5 (end of the observation period), worms were microscopically examined for their motility and appearance. Each concentration was tested in duplicate, and the final recording of percent worm mortality was determined as the number of dead worms [contracted and opaque] divided by the total number of worms × 100. Negative controls used medium without additions or medium with 2% DMSO; positive control media containing identical concentrations of PZQ were tested in parallel.

[6] = tested on: Schistosoma mansoni worm couples; test: S. mansoni ovipositing capacity and coupling; conditions: initial test (Table 2); for inhibition at 50 µM / inhibition at 100 µM: Schistosoma mansoni, 120 h, read-out: Reduction in number of eggs (%)
Protocol: Stock solutions of 5 mM PZQ and the quinazoline derivatives 2–13 were prepared in DMSO. Concentrations of 100 µM, 50 µM, 25 µM, 10 µM and 5 µM were freshly prepared on the day of experiment in RPMI-1640 medium. All compounds were initially tested at 100 and 50 µM; those showing worm killing were further tested at 25, 10 and 5 µM. 12-well tissue culture plates were used, each well containing 6–8 worms with at least one worm couple. Worms were incubated overnight in a CO2 incubator at 37 °C. Each concentration was tested in duplicate wells. On day 4, eggs were counted and discarded and the medium was changed. On day 5 (end of observation period) newly deposited eggs were counted. The final egg number is the total count of days 4 and 5 for each concentration tested and the final recording of the percentage of egg reduction was determined as [the total number of eggs on days 4 and 5 of control – the total number of eggs on days 4 and 5 of treated]/the total number of eggs on days 4 and 5 of control × 100.

In the case of O=C(O)Cc1ccccc1Nc1c(Cl)cccc1Cl [Diclofenac, diclofenac, reference compound], the “% Parent compound remaining upon incubation” value ([1]; 0 min) is reported as 100%, the “% Parent compound remaining upon incubation” value ([1]; 15 min) is reported as 87% and 61% and the “% Parent compound remaining upon incubation” value ([1]; 60 min) is reported as 48% and 27%. For the same compound, the “% Parent compound remaining upon incubation” value ([2]; 0 min) was 100%, the “% Parent compound remaining upon incubation” value ([2]; 15 min) was 41% and 34% and the “% Parent compound remaining upon incubation” value ([2]; 30 min) was 44% and 32%. For the same compound, the “% Parent compound remaining upon incubation” value ([2]; 60 min) was 34% and 30%, the “% Parent compound remaining upon incubation” value ([3]; 0 min) was 100% and the “% Parent compound remaining upon incubation” value ([3]; 15 min) was 27%. The “% Parent compound remaining upon incubation” value ([3]; 30 min) was 5%, the “% Parent compound remaining upon incubation” value ([3]; 60 min) was 1% and the “% Parent compound remaining upon incubation” value ([4]; 0 min) was 100%. For the same compound, the “% Parent compound remaining upon incubation” value ([4]; 15 min) was 11%, the “% Parent compound remaining upon incubation” value ([4]; 30 min) was 9% and the “% Parent compound remaining upon incubation” value ([4]; 60 min) was 9%.

For O=c1c2ccccc2n(Cc2ccc(C(F)(F)F)cc2)c(=O)n1Cc1ccc(F)cc1 [compound 2, 3-(4-Fluorobenzyl)-1-(4-(trifluoromethyl)benzyl)quinazolin-2,4(1H,3H)-dione], the killing at 50 µM [5] was 0%, the killing at 100 µM [5] was 100% and the Uncoupling ([6]; 50 µM) was “No”. The Uncoupling ([6]; 100 µM) was “Yes”, the inhibition at 50 µM ([6]; 50 µM) was 100% and the inhibition at 100 µM ([6]; 100 µM) was 100%.

With COc1ccc(Cn2c(=O)c3ccccc3n(Cc3ccc(C(F)(F)F)cc3)c2=O)cc1 [compound 3, 1-(4-(Trifluoromethyl)benzyl)3-(4-methoxybenzyl)quinazolin-2,4(1H,3H)-dione] the killing at 50 µM [5] was 0%, the killing at 100 µM [5] was 75% and the Uncoupling ([6]; 50 µM) was “Yes”. The Uncoupling ([6]; 100 µM) was “Yes”, the inhibition at 50 µM ([6]; 50 µM) was 100% and the inhibition at 100 µM ([6]; 100 µM) was 100%.

With O=c1c2cc(Br)ccc2n(Cc2ccc(C(F)(F)F)cc2)c(=O)n1Cc1ccc(F)cc1 [compound 4, 6-Bromo-3-(4-fluorobenzyl)-1-(4-(trifluoromethyl)benzyl)quinazolin-2,4(1H,3H)-dione] the killing at 50 µM [5] was 13%, the killing at 100 µM [5] was 100% and the Uncoupling ([6]; 50 µM) was “Yes”. For the same compound, the Uncoupling ([6]; 100 µM) was “Yes”, the inhibition at 50 µM ([6]; 50 µM) was 100% and the inhibition at 100 µM ([6]; 100 µM) was 100%.

With COc1ccc(Cn2c(=O)c3cc(Br)ccc3n(Cc3ccc(C(F)(F)F)cc3)c2=O)cc1 [compound 5, 6-Bromo-1-(4-(trifluoromethyl)benzyl)-3-(4-methoxybenzyl)quinazolin-2,4(1H,3H)-dione] the killing at 50 µM [5] was 0%, the killing at 100 µM [5] was 100% and the Uncoupling ([6]; 50 µM) was “No”. The Uncoupling ([6]; 100 µM) was “Yes”, the inhibition at 50 µM ([6]; 50 µM) was 31% and the inhibition at 100 µM ([6]; 100 µM) was 100%.

For O=c1c2ccc(Br)cc2n(Cc2ccc(C(F)(F)F)cc2)c(=O)n1Cc1ccc(F)cc1 [compound 6, 7-Bromo-3-(4-fluorobenzyl)-1-(4-(trifluoromethyl)benzyl)quinazolin-2,4(1H,3H)-dione], the killing at 50 µM [5] was 0%, the killing at 100 µM [5] was 88% and the Uncoupling ([6]; 50 µM) was “Yes”. The Uncoupling ([6]; 100 µM) was “Yes”, the inhibition at 50 µM ([6]; 50 µM) was 100% and the inhibition at 100 µM ([6]; 100 µM) was 100%.

With COc1ccc(Cn2c(=O)c3ccc(Br)cc3n(Cc3ccc(C(F)(F)F)cc3)c2=O)cc1 [compound 7, 7-Bromo-1-(4-(trifluoromethyl)benzyl)-3-(4-methoxybenzyl)quinazolin-2,4(1H,3H)-dione] the killing at 50 µM [5] was 0%, the killing at 100 µM [5] was 0% and the Uncoupling ([6]; 50 µM) was “No”. The Uncoupling ([6]; 100 µM) was “No”, the inhibition at 50 µM ([6]; 50 µM) was 35% and the inhibition at 100 µM ([6]; 100 µM) was 50%.

With O=c1c2cc(Cl)ccc2n(Cc2ccc(C(F)(F)F)cc2)c(=O)n1Cc1ccc(F)cc1 [compound 8, 6-Chloro-3-(4-fluorobenzyl)-1-(4-(trifluoromethyl)benzyl)quinazolin-2,4(1H,3H)-dione] the killing at 50 µM [5] was 0%, the killing at 100 µM [5] was 100% and the Uncoupling ([6]; 50 µM) was “Yes”. For the same compound, the Uncoupling ([6]; 100 µM) was “Yes”, the inhibition at 50 µM ([6]; 50 µM) was 100% and the inhibition at 100 µM ([6]; 100 µM) was 100%.

For COc1ccc(Cn2c(=O)c3cc(OC)c(OC)cc3n(Cc3ccc(C(F)(F)F)cc3)c2=O)cc1 [compound 11, 1-(4-(Trifluoromethyl)benzyl)-6,7-dimethoxy-3-(4-methoxybenzyl)quinazolin-2,4(1H,3H)-dione], the killing at 50 µM [5] was 0%, the killing at 100 µM [5] was 86% and the Uncoupling ([6]; 50 µM) was “Yes”. The Uncoupling ([6]; 100 µM) was “Yes”, the inhibition at 50 µM ([6]; 50 µM) was 100% and the inhibition at 100 µM ([6]; 100 µM) was 100%.

For Cc1cc(Br)c2c(c1)c(=O)n(Cc1ccc(F)cc1)c(=O)n2Cc1ccc(C(F)(F)F)cc1 [compound 12, 8-Bromo-3-(4-fluorobenzyl)-1-(4-(trifluoromethyl)benzyl)-6-methylquinazolin-2,4(1H,3H)-dione], the killing at 50 µM [5] was 0%, the killing at 100 µM [5] was 0% and the Uncoupling ([6]; 50 µM) was “No”. The Uncoupling ([6]; 100 µM) was “Yes”, the inhibition at 50 µM ([6]; 50 µM) was 50% and the inhibition at 100 µM ([6]; 100 µM) was 100%.

In the case of COc1ccc(Cn2c(=O)c3cc(C)cc(Br)c3n(Cc3ccc(C(F)(F)F)cc3)c2=O)cc1 [compound 13, 8-Bromo-1-(4-(trifluoromethyl)benzyl)-3-(4-methoxybenzyl)-6-methylquinazolin-2,4(1H,3H)-dione], the killing at 50 µM [5] is reported as 0%, the killing at 100 µM [5] is reported as 33% and the Uncoupling ([6]; 50 µM) is reported as “Yes”. For the same compound, the Uncoupling ([6]; 100 µM) was “Yes”, the inhibition at 50 µM ([6]; 50 µM) was 100% and the inhibition at 100 µM ([6]; 100 µM) was 100%.
